Experimental data taken from the supplement of paper PMC6045584.
± gives the standard deviation of the averaged measurements.

Assays:
SALINOMYCIN = compound: CC[C@@H](C(=O)[C@@H](C)[C@@H](O)[C@H](C)[C@@H]1O[C@@H]([C@@H](CC)C(=O)O)CC[C@@H]1C)[C@H]1O[C@]2(C=C[C@@H](O)[C@]3(CC[C@@](C)([C@H]4CC[C@](O)(CC)[C@H](C)O4)O3)O2)[C@H](C)C[C@@H]1C [SALINOMYCIN]; assay: surviving fraction relative to DMSO-only wells; higher = less growth inhibition; details: exposure time: 5 days
Procedure, shortened: (§1)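 Continuous five-day exposure to inhibitors at 0.5, 1, 5, 10, 50, 100, 500 and 1000 nM started 24 hours after log-phase tumour cell lines were seeded at 250–500 cells per well in 384-well plates. Luminescence was read after 10 minutes at room temperature. Viability is given as surviving fraction, meaning CellTiter-Glo luminescence normalised to the median of DMSO-only wells.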

17-AAG = compound: C=CCNC1=C2C[C@@H](C)C[C@H](OC)[C@H](O)[C@@H](C)/C=C(\C)[C@H](OC(N)=O)[C@@H](OC)/C=C\C=C(/C)C(=O)NC(=CC1=O)C2=O [17-AAG]; assay: as above; details: exposure time: 5 days
Procedure, shortened: as §1

22RV1 PROSTATE
surviving fraction (SALINOMYCIN; 0.5 nM): 1.01 ± 0.075
surviving fraction (SALINOMYCIN; 1 nM): 0.987 ± 0.053
surviving fraction (SALINOMYCIN; 5 nM): 1 ± 0.06
surviving fraction (SALINOMYCIN; 10 nM): 0.942 ± 0.059
surviving fraction (SALINOMYCIN; 50 nM): 0.817 ± 0.031
surviving fraction (SALINOMYCIN; 100 nM): 0.448 ± 0.038
surviving fraction (SALINOMYCIN; 500 nM): 0.195 ± 0.021
surviving fraction (SALINOMYCIN; 1000 nM): 0.125 ± 0.015
surviving fraction (17-AAG; 0.5 nM): 0.906 ± 0.038
surviving fraction (17-AAG; 1 nM): 0.989 ± 0.043
surviving fraction (17-AAG; 5 nM): 0.975 ± 0.027
surviving fraction (17-AAG; 10 nM): 0.91 ± 0.069
surviving fraction (17-AAG; 50 nM): 0.687 ± 0.07
surviving fraction (17-AAG; 100 nM): 0.336 ± 0.047
surviving fraction (17-AAG; 500 nM): 0.134 ± 0.0046
surviving fraction (17-AAG; 1000 nM): 0.0907 ± 0.011

93VU HEADNECK
surviving fraction (SALINOMYCIN; 0.5 nM): 0.887 ± 0.048
surviving fraction (SALINOMYCIN; 1 nM): 0.885 ± 0.11
surviving fraction (SALINOMYCIN; 5 nM): 1.01 ± 0.04
surviving fraction (SALINOMYCIN; 10 nM): 1.05 ± 0.023
surviving fraction (SALINOMYCIN; 50 nM): 0.976 ± 0.08
surviving fraction (SALINOMYCIN; 100 nM): 0.91 ± 0.053
surviving fraction (SALINOMYCIN; 500 nM): 0.304 ± 0.041
surviving fraction (SALINOMYCIN; 1000 nM): 0.177 ± 0.005
surviving fraction (17-AAG; 0.5 nM): 0.814 ± 0.066
surviving fraction (17-AAG; 1 nM): 0.78 ± 0.0099
surviving fraction (17-AAG; 5 nM): 0.822 ± 0.088
surviving fraction (17-AAG; 10 nM): 0.92 ± 0.087
surviving fraction (17-AAG; 50 nM): 1.13 ± 0.099
surviving fraction (17-AAG; 100 nM): 0.119 ± 0.011
surviving fraction (17-AAG; 500 nM): 0.092 ± 0.0062
surviving fraction (17-AAG; 1000 nM): 0.0827 ± 0.005

143B BONE
surviving fraction (SALINOMYCIN; 0.5 nM): 0.98 ± 0.044
surviving fraction (SALINOMYCIN; 1 nM): 0.99 ± 0.026
surviving fraction (SALINOMYCIN; 5 nM): 1.02 ± 0.023
surviving fraction (SALINOMYCIN; 10 nM): 1.01 ± 0.027
surviving fraction (SALINOMYCIN; 50 nM): 1.03 ± 0.018
surviving fraction (SALINOMYCIN; 100 nM): 1.03 ± 0.035
surviving fraction (SALINOMYCIN; 500 nM): 0.9815 ± 0.00071
surviving fraction (SALINOMYCIN; 1000 nM): 0.763 ± 0.028
surviving fraction (17-AAG; 0.5 nM): 0.985 ± 0.047
surviving fraction (17-AAG; 1 nM): 0.992 ± 0.063
surviving fraction (17-AAG; 5 nM): 1.02 ± 0.029
surviving fraction (17-AAG; 10 nM): 0.965 ± 0.021
surviving fraction (17-AAG; 50 nM): 0.651 ± 0.011
surviving fraction (17-AAG; 100 nM): 0.271 ± 0.0071
surviving fraction (17-AAG; 500 nM): 0.0855 ± 0.00071
surviving fraction (17-AAG; 1000 nM): 0.0855 ± 0.00071

A549 LUNG
surviving fraction (SALINOMYCIN; 0.5 nM): 0.944 ± 0.028
surviving fraction (SALINOMYCIN; 1 nM): 0.9123 ± 0.005
surviving fraction (SALINOMYCIN; 5 nM): 0.95 ± 0.033
surviving fraction (SALINOMYCIN; 10 nM): 0.907 ± 0.022
surviving fraction (SALINOMYCIN; 50 nM): 1.03 ± 0.028
surviving fraction (SALINOMYCIN; 100 nM): 0.97 ± 0.03
surviving fraction (SALINOMYCIN; 500 nM): 0.729 ± 0.018
surviving fraction (SALINOMYCIN; 1000 nM): 0.528 ± 0.033
surviving fraction (17-AAG; 0.5 nM): 0.923 ± 0.039
surviving fraction (17-AAG; 1 nM): 0.909 ± 0.038
surviving fraction (17-AAG; 5 nM): 0.91 ± 0.007
surviving fraction (17-AAG; 10 nM): 0.813 ± 0.076
surviving fraction (17-AAG; 50 nM): 0.14 ± 0.014
surviving fraction (17-AAG; 100 nM): 0.06 ± 0.0044
surviving fraction (17-AAG; 500 nM): 0.0547 ± 0.0032
surviving fraction (17-AAG; 1000 nM): 0.0493 ± 0.00058

ASKA SYNOVIAL
surviving fraction (SALINOMYCIN; 0.5 nM): 1.05 ± 0.088
surviving fraction (SALINOMYCIN; 1 nM): 0.926 ± 0.086
surviving fraction (SALINOMYCIN; 5 nM): 1.02 ± 0.1
surviving fraction (SALINOMYCIN; 10 nM): 0.582 ± 0.048
surviving fraction (SALINOMYCIN; 50 nM): 1.14 ± 0.034
surviving fraction (SALINOMYCIN; 100 nM): 1.03 ± 0.016
surviving fraction (SALINOMYCIN; 500 nM): 0.797 ± 0.073
surviving fraction (SALINOMYCIN; 1000 nM): 0.441 ± 0.037
surviving fraction (17-AAG; 0.5 nM): 0.785 ± 0.062
surviving fraction (17-AAG; 1 nM): 0.728 ± 0.11
surviving fraction (17-AAG; 5 nM): 0.626 ± 0.045
surviving fraction (17-AAG; 10 nM): 0.293 ± 0.025
surviving fraction (17-AAG; 50 nM): 0.206 ± 0.014
surviving fraction (17-AAG; 100 nM): 0.182 ± 0.02
surviving fraction (17-AAG; 500 nM): 0.185 ± 0.011
surviving fraction (17-AAG; 1000 nM): 0.226 ± 0.0099

BT20 BREAST
surviving fraction (SALINOMYCIN; 0.5 nM): 0.964 ± 0.16
surviving fraction (SALINOMYCIN; 1 nM): 1.05 ± 0.14
surviving fraction (SALINOMYCIN; 5 nM): 1.12 ± 0.076
surviving fraction (SALINOMYCIN; 10 nM): 1.3 ± 0.25
surviving fraction (SALINOMYCIN; 50 nM): 1.32 ± 0.19
surviving fraction (SALINOMYCIN; 100 nM): 1.19 ± 0.25
surviving fraction (SALINOMYCIN; 500 nM): 1.22 ± 0.31
surviving fraction (SALINOMYCIN; 1000 nM): 1.13 ± 0.3
surviving fraction (17-AAG; 0.5 nM): 0.804 ± 0.1
surviving fraction (17-AAG; 1 nM): 0.793 ± 0.054
surviving fraction (17-AAG; 5 nM): 0.504 ± 0.08
surviving fraction (17-AAG; 10 nM): 0.308 ± 0.034
surviving fraction (17-AAG; 50 nM): 0.303 ± 0.061
surviving fraction (17-AAG; 100 nM): 0.282 ± 0.091
surviving fraction (17-AAG; 500 nM): 0.261 ± 0.068
surviving fraction (17-AAG; 1000 nM): 0.278 ± 0.047

BT549 BREAST
surviving fraction (SALINOMYCIN; 0.5 nM): 0.999 ± 0.033
surviving fraction (SALINOMYCIN; 1 nM): 1.18 ± 0.079
surviving fraction (SALINOMYCIN; 5 nM): 1.02 ± 0.056
surviving fraction (SALINOMYCIN; 10 nM): 0.93 ± 0.031
surviving fraction (SALINOMYCIN; 50 nM): 0.891 ± 0.35
surviving fraction (SALINOMYCIN; 100 nM): 0.73 ± 0.39
surviving fraction (SALINOMYCIN; 500 nM): 0.523 ± 0.2
surviving fraction (SALINOMYCIN; 1000 nM): 0.341 ± 0.079
surviving fraction (17-AAG; 0.5 nM): 0.874 ± 0.12
surviving fraction (17-AAG; 1 nM): 0.811 ± 0.034
surviving fraction (17-AAG; 5 nM): 0.604 ± 0.092
surviving fraction (17-AAG; 10 nM): 0.259 ± 0.064
surviving fraction (17-AAG; 50 nM): 0.152 ± 0.028
surviving fraction (17-AAG; 100 nM): 0.0433 ± 0.0042
surviving fraction (17-AAG; 500 nM): 0.0447 ± 0.0045
surviving fraction (17-AAG; 1000 nM): 0.0467 ± 0.0025

C33A CERVIX
surviving fraction (SALINOMYCIN; 0.5 nM): 0.812 ± 0.13
surviving fraction (SALINOMYCIN; 1 nM): 0.769 ± 0.16
surviving fraction (SALINOMYCIN; 5 nM): 1 ± 0.12
surviving fraction (SALINOMYCIN; 10 nM): 1.05 ± 0.21
surviving fraction (SALINOMYCIN; 50 nM): 1.08 ± 0.035
surviving fraction (SALINOMYCIN; 100 nM): 1.08 ± 0.13
surviving fraction (SALINOMYCIN; 500 nM): 0.328 ± 0.024
surviving fraction (SALINOMYCIN; 1000 nM): 0.25 ± 0.0067
surviving fraction (17-AAG; 0.5 nM): 1.22 ± 0.12
surviving fraction (17-AAG; 1 nM): 1.04 ± 0.14
surviving fraction (17-AAG; 5 nM): 1.4 ± 0.13
surviving fraction (17-AAG; 10 nM): 1.2 ± 0.09
surviving fraction (17-AAG; 50 nM): 1.31 ± 0.068
surviving fraction (17-AAG; 100 nM): 1.16 ± 0.1
surviving fraction (17-AAG; 500 nM): 1.061 ± 0.0074
surviving fraction (17-AAG; 1000 nM): 0.124 ± 0.016

CADOES1 SOFT TISSUE
surviving fraction (SALINOMYCIN; 0.5 nM): 0.978 ± 0.096
surviving fraction (SALINOMYCIN; 1 nM): 0.959 ± 0.036
surviving fraction (SALINOMYCIN; 5 nM): 0.838 ± 0.14
surviving fraction (SALINOMYCIN; 10 nM): 0.918 ± 0.15
surviving fraction (SALINOMYCIN; 50 nM): 0.856 ± 0.041
surviving fraction (SALINOMYCIN; 100 nM): 0.454 ± 0.1
surviving fraction (SALINOMYCIN; 500 nM): 0.147 ± 0.0061
surviving fraction (SALINOMYCIN; 1000 nM): 0.105 ± 0.004
surviving fraction (17-AAG; 0.5 nM): 0.884 ± 0.093
surviving fraction (17-AAG; 1 nM): 1.01 ± 0.07
surviving fraction (17-AAG; 5 nM): 1 ± 0.076
surviving fraction (17-AAG; 10 nM): 0.903 ± 0.023
surviving fraction (17-AAG; 50 nM): 0.876 ± 0.11
surviving fraction (17-AAG; 100 nM): 0.842 ± 0.1
surviving fraction (17-AAG; 500 nM): 0.454 ± 0.1
surviving fraction (17-AAG; 1000 nM): 0.129 ± 0.022

CAL51 BREAST
surviving fraction (SALINOMYCIN; 0.5 nM): 0.937 ± 0.041
surviving fraction (SALINOMYCIN; 1 nM): 0.86 ± 0.12
surviving fraction (SALINOMYCIN; 5 nM): 0.984 ± 0.018
surviving fraction (SALINOMYCIN; 10 nM): 0.969 ± 0.021
surviving fraction (SALINOMYCIN; 50 nM): 1 ± 0.017
surviving fraction (SALINOMYCIN; 100 nM): 0.972 ± 0.034
surviving fraction (SALINOMYCIN; 500 nM): 0.615 ± 0.022
surviving fraction (SALINOMYCIN; 1000 nM): 0.359 ± 0.018
surviving fraction (17-AAG; 0.5 nM): 0.966 ± 0.047
surviving fraction (17-AAG; 1 nM): 0.886 ± 0.052
surviving fraction (17-AAG; 5 nM): 0.989 ± 0.033
surviving fraction (17-AAG; 10 nM): 0.93 ± 0.033
surviving fraction (17-AAG; 50 nM): 0.361 ± 0.0083
surviving fraction (17-AAG; 100 nM): 0.0827 ± 0.0082
surviving fraction (17-AAG; 500 nM): 0.0253 ± 0.00076
surviving fraction (17-AAG; 1000 nM): 0.024 ± 0.0005
